Assay results published in patent US10208037B2, “Toll-like receptor-7 and -8 modulatory 1H imidazoquinoline derived compounds” (The University of Kansas, priority 2011, dated 2019).

Tests used:
Format in all cases: cell-based
TLR7 [1] = biological target: T1, TLR7 (Homo sapiens, UniProt Q9NYK1); experiment: TLR7 reporter gene assay, antagonism (gardiquimod as agonist)
T1 construct: expressed in transfected cells; host or cells: HEK293 (HEK-Blue-7 cells)
T1 sequence (Q9NYK1 27-1049): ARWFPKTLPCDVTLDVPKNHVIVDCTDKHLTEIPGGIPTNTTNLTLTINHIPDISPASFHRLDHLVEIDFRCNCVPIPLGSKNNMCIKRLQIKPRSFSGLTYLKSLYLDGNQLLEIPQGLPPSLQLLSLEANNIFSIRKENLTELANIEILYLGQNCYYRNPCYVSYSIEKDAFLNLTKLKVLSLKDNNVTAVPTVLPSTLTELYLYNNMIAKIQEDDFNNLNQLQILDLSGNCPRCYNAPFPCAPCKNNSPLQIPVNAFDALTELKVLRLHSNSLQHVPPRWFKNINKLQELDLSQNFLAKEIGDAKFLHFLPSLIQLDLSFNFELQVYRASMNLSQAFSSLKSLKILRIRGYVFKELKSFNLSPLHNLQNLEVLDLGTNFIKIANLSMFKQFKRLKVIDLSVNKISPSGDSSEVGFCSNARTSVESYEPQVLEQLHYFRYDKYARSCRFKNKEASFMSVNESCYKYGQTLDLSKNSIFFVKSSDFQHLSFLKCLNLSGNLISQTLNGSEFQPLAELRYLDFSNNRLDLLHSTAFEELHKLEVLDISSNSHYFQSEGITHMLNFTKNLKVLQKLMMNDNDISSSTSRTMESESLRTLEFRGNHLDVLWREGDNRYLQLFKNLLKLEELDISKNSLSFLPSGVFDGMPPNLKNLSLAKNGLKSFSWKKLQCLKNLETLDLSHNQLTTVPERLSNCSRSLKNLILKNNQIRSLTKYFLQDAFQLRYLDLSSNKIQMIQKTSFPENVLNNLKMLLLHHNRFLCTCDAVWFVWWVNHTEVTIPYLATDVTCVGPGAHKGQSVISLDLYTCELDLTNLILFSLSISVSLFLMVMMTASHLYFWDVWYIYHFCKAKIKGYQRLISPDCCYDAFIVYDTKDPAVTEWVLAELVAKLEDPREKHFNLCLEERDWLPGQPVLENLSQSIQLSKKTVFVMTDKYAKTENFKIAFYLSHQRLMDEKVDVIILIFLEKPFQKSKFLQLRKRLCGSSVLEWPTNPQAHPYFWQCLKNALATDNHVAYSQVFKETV
Excerpt: (§1) The induction of NF-κB was quantified using HEK-Blue-3, HEK-Blue-7 and HEK-Blue-8 cells as previously described by us.^8,24,51 HEK293 cells were stably transfected with human TLR3 (or human TLR7 or human TLR8), MD2, and secreted alkaline phosphatase (sAP), and were maintained in HEK-Blue™ Selection medium containing zeocin and normocin. Stable expression of secreted alkaline phosphatase (sAP) under control of NF-κB/AP-1 promoters is inducible by the TLR3 (or TLR7 or TLR8) agonists, and extracellular sAP in the supernatant is proportional to NF-κB induction. HEK-Blue cells were incubated at a density of ˜10^5 cells/ml in a volume of 80 μl/well, in 384-well, flat-bottomed, cell culture-treated microtiter plates until confluency was achieved, and subsequently graded concentrations of stimuli. sAP was assayed spectrophotometrically using an alkaline phosphatase-specific chromogen (present in HEK-detection medium as supplied by the vendor) at 620 nm.
(§2) Antagonism assays were done as described by us earlier^73 using the following agonists at a constant concentration: TLR3 Poly(I:C) (10 ng/mL); TLR7: gardiquimod (1 μg/mL); TLR8: CL075 (1 μg/mL) mixed with graded concentrations of the test compounds.

TLR8 [2] = biological target: T2, TLR8 (Homo sapiens, UniProt Q9NR97); experiment: TLR8 reporter gene assay, antagonism (CL075 as agonist)
T2 construct: expressed in transfected cells; host or cells: HEK293 (HEK-Blue-8 cells)
T2 sequence (Q9NR97 27-1041): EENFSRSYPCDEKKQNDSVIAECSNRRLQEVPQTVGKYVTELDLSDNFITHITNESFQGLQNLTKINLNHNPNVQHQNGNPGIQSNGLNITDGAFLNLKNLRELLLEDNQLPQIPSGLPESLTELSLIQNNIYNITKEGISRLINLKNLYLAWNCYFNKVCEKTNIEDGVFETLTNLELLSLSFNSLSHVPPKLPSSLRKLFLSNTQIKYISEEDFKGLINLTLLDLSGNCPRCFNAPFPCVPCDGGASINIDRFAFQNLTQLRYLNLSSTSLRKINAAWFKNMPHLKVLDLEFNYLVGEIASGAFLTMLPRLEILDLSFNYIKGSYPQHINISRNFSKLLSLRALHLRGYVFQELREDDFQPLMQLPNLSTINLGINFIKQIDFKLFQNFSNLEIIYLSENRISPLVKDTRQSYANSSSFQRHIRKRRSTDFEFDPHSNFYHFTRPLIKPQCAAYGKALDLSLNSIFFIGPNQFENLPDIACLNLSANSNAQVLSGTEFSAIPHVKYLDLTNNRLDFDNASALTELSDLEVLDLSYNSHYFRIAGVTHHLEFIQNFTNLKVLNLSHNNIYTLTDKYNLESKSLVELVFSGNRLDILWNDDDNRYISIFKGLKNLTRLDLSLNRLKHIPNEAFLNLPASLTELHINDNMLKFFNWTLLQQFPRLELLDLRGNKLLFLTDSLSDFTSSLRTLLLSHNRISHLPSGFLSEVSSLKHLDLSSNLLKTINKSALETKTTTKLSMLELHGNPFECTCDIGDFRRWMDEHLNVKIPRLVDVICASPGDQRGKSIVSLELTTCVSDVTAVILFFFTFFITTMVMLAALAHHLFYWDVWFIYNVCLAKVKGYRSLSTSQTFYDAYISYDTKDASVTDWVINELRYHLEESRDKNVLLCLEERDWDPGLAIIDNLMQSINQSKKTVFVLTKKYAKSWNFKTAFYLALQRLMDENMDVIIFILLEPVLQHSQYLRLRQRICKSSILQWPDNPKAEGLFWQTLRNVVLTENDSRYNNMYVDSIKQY
Excerpt: as §1, §2

[3] = system: TLR7 and TLR8-induced cytokine and chemokine release; experiment: Inhibition of TLR7- and TLR8-mediated cytokine and chemokine production in human PBMCs; settings: hPBMCs
Method: FIGS. 22A-[…] illustrate inhibition of TLR7-mediated (FIGS. 22A-22D) and TLR8-mediated (FIGS. 22E-[…]) proinflammatory cytokine production in human peripheral blood mononuclear cells by chloroquine or 47a. Proinflammatory cytokines were assayed by cytokine bead array methods after incubation of hPBMCs with graded concentrations of the test compound for 12 h in the presence of 10 μg/ml of either CL075 (TLR8 agonist) or gardiquimod (TLR7 agonist). FIGS. 23A-23D illustrate inhibition of TLR7-mediated (FIGS. 23A-23B) and TLR8-mediated (FIGS. 23C-3D) chemokine production in human peripheral blood mononuclear cells by chloroquine or 47a. Chemokines were assayed by cytokine bead array methods after incubation of hPBMCs with graded concentrations of the test compound for 12 h in the presence of 10 μg/ml of either CL075 (TLR8 agonist) or gardiquimod (TLR7 agonist). Aliquots (10^6 cells in 100 μL) of hPBMCs isolated from blood obtained from healthy human donors after informed consent by conventional Ficoll-Hypaque gradient centrifugation were stimulated for 12 h with graded concentrations of test compounds. The supernatant was isolated by centrifugation, diluted 1:20, and cytokines and chemokines were assayed in triplicate using analyte-specific cytokine/chemokine bead array assays as reported by us previously.^74

TLR7 [4] = biological target: T1, TLR7; experiment: Schild plot analysis of inhibition of TLR7-induced activation
Method: (§3) Experiments were performed in checker-board format, using a liquid handler, in 384-well plates which permitted the concentrations of both agonist and antagonist to be varied simultaneously along the two axes of the plate. Either imidazoquinoline (TLR7-specific agonist) or CL075 (TLR8-specific agonist) was used at a starting concentration of 20 μg/mL, and were two-fold diluted serially (along the rows). Next, 47a or chloroquine was two-fold diluted serially in HEK detection medium (along columns). Reporter cells were then added, incubated, and NF-κB activation measured as described in the text. A and A′ (Y-axis) are defined respectively as the EC50 value in the absence of antagonist, and the EC50 values in the presence of varying concentrations of antagonist.

TLR8 [5] = biological target: T2, TLR8; experiment: Schild plot analysis of inhibition of TLR8-induced activation
Method: as §3

TLR7 antagonistic activity (in words) (TLR7 [1]): potent antagonistic activity
IC50 (TLR7 [1]; agonist gardiquimod 1 μg/mL, ND = not detected): 3.1 µM
TLR8 antagonistic activity (in words) (TLR8 [2]): potent antagonistic activity
IC50 (TLR8 [2]; agonist CL075 1 μg/mL, ND = not detected): 3.2 µM
IC50 ([3]; Homo sapiens, PBMC, 12 h, 10 μg/ml CL075 or gardiquimod): 0.05 to 0.3 µM
Schild plot slope, TLR7 inhibition (TLR7 [4]): 1.12
Schild plot slope, TLR8 inhibition (TLR8 [5]): 0.51
Compound: Nc1nc2ccccc2c2c1nc(CCCc1nc3c(N)nc4ccccc4c3n1Cc1ccccc1)n2Cc1ccccc1 [Compound 47a, 2,2′-(propane-1,3-diyl)bis(1-benzyl-1H-imidazo[4,5-c]quinolin-4-amine)]
Inhibition of TNF-α and IL-1β production (in words) [3]: potently inhibits
